Tested on: DSS induced ulcerative colitis
Experiment: DSS induced chronic colitis (ulcerative colitis) mouse model
Assay type: in vivo
Procedure: The current study was conducted in the mice model of dextran Sodium Sulfate (DSS) induced ulcerative colitis (UC). DSS induces chronic colitis in experimental animals when given orally in drinking water for 7 days followed by no DSS in drinking water. Chronic intestinal inflammation is associated with body weight loss, diarrhea, blood in the stool and the infiltration of leucocytes from the blood to intestinal tissue. Among those cells, subpopulations of T lymphocytes such as Th1 and Th17 play an important role in the initiation and chronicity of inflammation. Trafficking of T cells from blood to target tissue is a complex process that is controlled by molecularly distinct adhesion and signaling steps. As such, the α4β7 and MAdCAM-1 adhesion mechanism may be closely involved in lymphocyte trafficking to the site of inflammation in the gut.
Evaluation of the therapeutic potential of the compound of Example 1 (cpd 1) in a mouse model of Dextran Sodium Sulfate (DSS) induced ulcerative colitis (UC)
Female C57BI/6 mice (Charles River, St-Constant, Qc), weighting 15-20 g at delivery were used for this study. Following arrival in the animal facility, all animals were subjected to a general health evaluation. […]
Specific symptoms associated to UC were scored based on the severity of each particular symptoms: • 1- blood in stool (negative hemoccult, positive hemoccult, visible blood traces in stool, rectal bleeding); • 2- stool consistency (normal, soft, diarrhea); • 3- body weight loss (score 0: 0-1 %; 1: 1.5-5%; 2: 5.5-10%; 3: 10.5-15 %; 4: 15.5-20 %; 5: >20%). […]
Once the mouse was euthanized, the colon was collected, and its length was measured. Lesion length was also measured. Colon lesions was scored macroscopically based on inflammation, thickening and vascularization to give an overall macroscopic inflammation score of each animal in the study. […]
Statistical differences among groups were determined using a two-way ANOVA, followed by a post-hoc analysis, using Tukey’s multiple comparison test, to compare each group to the DSS+vehicle control group. […]

CC(C)C[C@@H]1NC(=O)c2ccc(-c3ccc(N4CCN(C(=O)c5ccccc5-c5ccccc5C(=O)N5CCN(c6ccc(-c7ccc8cc7CNC(=O)[C@@H]7CCCN7[C@H](C(=O)NC(C)(C)C)[C@H](C)NC(=O)[C@H]([C@@H](C)O)NC(=O)[C@H](CC(=O)O)NC(=O)[C@H](CC(C)C)NC8=O)cc6)CC5)CC4)cc3)c(c2)CNC(=O)[C@@H]2CCCN2[C@H](C(=O)NC(C)(C)C)[C@H](C)NC(=O)[C@H]([C@@H](C)O)NC(=O)[C@H](CC(=O)O)NC1=O [Example 1, 2,2′-((S,S,S,S,S,S,1^2,8S,11S,14S,17S,18S)-((([1,1′-Biphenyl]-2,2′-Dicarbonyl)-Bis(Piperazine-4,1-Diyl))Bis(4,1-Phenylene))Bis(18-(Tert-Butylcarbamoyl)-14-((R)-1-Hydroxyethyl)-8-Isobutyl-17-Methyl-2,6,9,12,15-Pentaoxo-3,7,10,13,16-Pentaaza-1(2,1)-Pyrrolidina-5(1,3)-Benzenacyclooctadecaphane-5^6,11-Diyl))-Diacetic Acid]
effect on DAI score (100 mg/kg p.o. once daily day 0-14, DSS mice, vs DSS + vehicle): did not lead to any beneficial effect
macroscopic inflammation score, % less than DSS + vehicle (100 mg/kg p.o. once daily day 0-14, colon at day 14, significant difference): around 30%
MPO U/g colon protein, % less than DSS + vehicle (100 mg/kg p.o. once daily day 0-14, medio-distal colon, ELISA, not statistically significant): approximately 49%
